Test: Browning of the sprayed regions of the edible material with polysaccharide in the liquid composition
Format: physicochemical
Conditions: polysaccharide included in the liquid composition
Excerpt: The polysaccharide comprised in the liquid composition of the process of the invention may be selected from the group consisting of maltodextrin, acacia gum, agar-agar, carrageenan, tragacanth, locust bean gum, guar gum, xanthan gum and combinations of these. […] The polysaccharide may be carrageenan or acacia gum.

Substance	browning of the sprayed regions of the edible material
Carrageenan	particularly effective at preventing or delaying browning
acacia gum	particularly effective at preventing or delaying browning

From patent US20170208848A1, “PROCESS FOR MANUFACTURING AN IRON FORTIFIED FOOD PRODUCT” (NESTEC S.A., priority 2014, published 2017)
